{"source": "patent US20250214998A1", "about": "“CYCLIC COMPOUNDS AS RECEPTOR MODULATING THERAPEUTICS AND METHODS AND USES THEREOF” (BIONOMICS LIMITED, priority 2018, published 2025)", "key": {"[1]": {"assay": "A2B permeability (Papp) in MDCK-MDR1 cell monolayers", "format": "in vitro ADME", "design": "dose or concentration left out as unconfirmed", "details": "dog; MDCK-MDR1 monolayer, A-B direction, HBSS pH 7.4, 60 min, 37° C.", "procedure": "(§1) MDCK-MDR1 cells obtained from the NIH (Rockville, MD, USA) are used between passage numbers 6-30. Cells are seeded onto Millipore Multiscreen Transwell plates at 3.4×10^5 cells/cm2. The cells are cultured in DMEM and media is changed on day 3. On day 4 the permeability study is performed. Cell culture and assay incubations are carried out at 37° C. in an atmosphere of 5% CO2 with a relative humidity of 95%. On the day of the assay, the monolayers are prepared by rinsing both apical and basolateral surfaces twice with Hanks Balanced Salt Solution (HBSS) at the desired pH warmed to 37° C. Cells are then incubated with HBSS at the desired pH in both apical and basolateral compartments for 40 min to stabilise physiological parameters.\n(§2) The dosing solutions are prepared by diluting test compound with assay buffer to give a final test compound concentration of […] (final DMSO concentration of 1% v/v). The fluorescent integrity marker lucifer yellow is also included in the dosing solution. […]\n(§3) Test compound permeability is assessed in duplicate. […]\n(§4) Test and control compounds are quantified by LC-MS/MS cassette analysis using a 7-point calibration with appropriate dilution of the samples. […] The starting concentration (CO) is determined from the dosing solution and the experimental recovery calculated from CO and both apical and basolateral compartment concentrations.\n(§5) The integrity of the monolayer throughout the experiment is checked by monitoring lucifer yellow permeation using fluorimetric analysis. […] If a lucifer yellow Papp value is above a pre-defined threshold in one well, but the derived Papp result for test compound or marker compound in that well is qualitatively similar to that determined in the remaining replicate well (within the lucifer yellow threshold) then, based upon the scientific judgement of the responsible scientist, the cell monolayer may be considered acceptable. […] If this re-occurs upon repeat in both wells then toxicity or inherent fluorescence of the test compound is assumed. […]"}, "MDCK-MDR1 cells": {"test_system": "MDCK-MDR1 cells", "assay": "A2B permeability (Papp) in MDCK-MDR1 cell monolayers", "format": "in vitro ADME", "design": "dose or concentration left out as unconfirmed", "details": "MDCK-MDR1 monolayer, A-B direction, HBSS pH 7.4, 60 min, 37° C.", "procedure": "as §1, §2, §3, §4, §5"}}}
{"smiles": "CCn1cc(C(=O)N2C[C@H]3C[C@@H]2CO3)c(=O)c2cc(OC3Cc4ccccc4C3)cnc21", "note": "(stereo in doubt) [Example 17, 1-Ethyl-6-indan-2-yloxy-3-[(1R,4R)-2-oxa-5-azabicyclo[2.2.1]heptane-5-carbonyl]-1,8-naphthyridin-4-one]", "values": [{"measurement": "Papp A→B at 60 min", "setting": "[1]", "value": 8.7, "unit": "nm/s"}]}
{"smiles": "CCn1cc(C(=O)N2CC3(CCOCC3)C2)c(=O)c2cc(OC3Cc4ccccc4C3)cnc21", "note": "[Example 23, 1-Ethyl-6-indan-2-yloxy-3-(7-oxa-2-azaspiro[3.5]nonane-2-carbonyl)-1,8-naphthyridin-4-one]", "values": [{"measurement": "A2B Papp", "setting": "MDCK-MDR1 cells", "value": "23 1.24 10^−6 cm/s"}]}
{"smiles": "CCn1cc(C(=O)N2C3COCC2C3)c(=O)c2cc(OC3Cc4ccccc4C3)cnc21", "note": "[Example 16, 1-Ethyl-6-indan-2-yloxy-3-(3-oxa-6-azabicyclo[3.1.1]heptane-6-carbonyl)-1,8-naphthyridin-4-one]", "values": [{"measurement": "A2B Papp", "setting": "MDCK-MDR1 cells", "value": "16 2.06 10^−6 cm/s"}]}
